Counter-ions that a name gives are not always drawn.

The target in this assay is T1, steroid 17α-hydroxylase and/or steroid C17-20 lyase (Rattus norvegicus, UniProt P11715).
T1 construct: the testis of rats (SD, male) was homogenized and centrifuged to obtain microsome; from tissue; host or cells: rat (SD, male) testis microsomes
T1 sequence (P11715 1-507): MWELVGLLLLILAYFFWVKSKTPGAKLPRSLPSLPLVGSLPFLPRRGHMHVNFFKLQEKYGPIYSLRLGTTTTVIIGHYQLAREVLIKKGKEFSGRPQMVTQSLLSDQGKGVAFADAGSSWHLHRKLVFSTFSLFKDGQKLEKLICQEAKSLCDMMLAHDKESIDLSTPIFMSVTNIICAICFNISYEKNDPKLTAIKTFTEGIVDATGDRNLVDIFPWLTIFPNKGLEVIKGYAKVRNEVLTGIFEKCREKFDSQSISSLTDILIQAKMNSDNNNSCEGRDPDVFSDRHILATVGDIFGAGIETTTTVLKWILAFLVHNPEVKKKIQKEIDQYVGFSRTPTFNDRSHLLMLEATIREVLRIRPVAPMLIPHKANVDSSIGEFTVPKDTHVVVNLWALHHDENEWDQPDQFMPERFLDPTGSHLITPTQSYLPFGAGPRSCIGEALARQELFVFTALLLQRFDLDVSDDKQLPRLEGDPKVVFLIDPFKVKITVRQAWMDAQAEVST
Kind of assay: Measurement of steroid 17α-hydroxylase and/or steroid C17-20 lyase inhibitory activity (rat testis microsome, HPLC). The settings on record: Enzyme source: rat testis microsome; test compound 300 nM; substrate 25 μM 17α-hydroxyprogesterone; NADPH 500 μM; 20 minutes at 37° C. Type of assay: biochemical. As to the method:
An experiment was carried out according to the method of T. Sergejew and R. W. Hartmann (J. Enzyme Inhibition, 8, 113(1994)). That is, the testis of rats (SD, male) was homogenized and centrifuged to obtain microsome. […] After the addition of 100 μl of microsome protein solution, the protein contentration was adjusted to 0.1 mg/ml by 50 mM phosphate buffer solution (pH 7.4), 140 μl of 125 nmol NADPH solution, and 10 μl of 6.25 nmol 17α-hydroxyprogesterone, the mixture was incubated for 20 minutes at 37° C. 50 μl of 1N hydrochloric acid and 1000 μl of ethyl acetate were sequentially added to the mixture. The mixture was shaken and centrifuged. The ethyl acetate layer was washed with 250 μl of 50 mM phosphate buffer solution (pH 7.4) and 50 μl of 1N hydrochloric acid, centrifuged, and concentrated. The concentrate was dissolved in 100 μl of acetonitrile. 10 μl of this solution was charged to high performance liquid chromatography. The amounts of the substrate and the product (androstenedione and testosterone) were measured to calculate the enzyme activity. In this experiment, a sample without the test compound was provided as a control group. Steroid 17α-hydroxylase and/or steroid C17-20-lyase inhibitory activity (%) was calculated by the following equation (1) using the amounts of the substrate and the product obtained.
The term inhibition denotes the drop in the measured response relative to a control, in per cent. Low readings indicate a weak effect, high ones a strong effect. `Brc1ccc2c(-c3cccnc3)csc2c1` [Example 28, 3-(6-bromobenzo[b]thiophen-3-yl)pyridine hydrochloride] showed an inhibition at 0.3 µM of 42%. The compound `CCCCCOc1ccc2c(-c3cccnc3)csc2c1` [Example 36, 3-(6-amyloxybenzo[b]thiophen-3-yl)pyridine hydrochloride] came in with an inhibition at 0.3 µM of 60%. On the same count and under the same terms, as for `c1cncc(-c2csc3cc(N4CCOCC4)ccc23)c1` [Example 55, 4-[3-(3-pyridyl)benzo[b]thiophen-6-yl]morpholine dihydrochloride], the figure is 94%. For `c1cncc(-c2csc3cc(-c4ccoc4)ccc23)c1` [Example 32, 3-[6-(3-furyl)benzo[b]thiophen-3-yl]pyridine hydrochloride], 0.3 µM produced 100% inhibition. Same read-out and setting: as for `CCCc1ccc2c(-c3cccnc3)csc2c1` [Example 52, 3-(6-propylbenzo[b]thiophen-3-yl)pyridine hydrochloride], the figure is 93%; as for `c1cncc(-c2csc3cc(-c4ccc5c(c4)OCO5)ccc23)c1` [Example 42, 3-[6-(1,3-benzodioxol-5-yl)benzo[b]thiophen-3-yl]pyridine hydrochloride], 57%; as for `CCCCOc1ccc2c(-c3cccnc3)csc2c1` [Example 37, 3-(6-butyloxybenzo[b]thiophen-3-yl)pyridine hydrochloride], 80%. Compound `CN(C)CCOc1ccc2c(-c3cccnc3)csc2c1` [Example 45, 3-[6-(N,N-dimethyl-2-aminoethyloxy)benzo[b]thiophen-3-yl]pyridine dimaleate] displayed an inhibition at 0.3 µM of 33%. Take `O=C(Oc1ccc2c(-c3cccnc3)csc2c1)c1ccccc1` [Example 10, 3-(3-pyridyl)benzo[b]thiophen-6-yl=benzoate]: the “Inhibitory activity (%)” value worked out at 71%. In turn, `CC(=O)Nc1ccc2c(-c3cccnc3)csc2c1` [Example 56, N1-[3-(3-pyridyl)benzo[b]thiophen-6-yl]acetamide] displayed an inhibition at 0.3 µM of 63%. For `COc1ccc(-c2ccc3c(-c4cccnc4)csc3c2)cc1` [Example 18, 3-[6-(4-methoxyphenyl)benzo[b]thiophen-3-yl]pyridine], the inhibition at 0.3 µM came to 37%. In the case of `COc1cccc(-c2ccc3c(-c4cccnc4)csc3c2)c1` [Example 16, 3-[6-(3-methoxyphenyl)benzo[b]thiophen-3-yl]pyridine hydrochloride], 0.3 µM produced 73% inhibition.

In turn, `Cc1ccc2c(-c3cccnc3)csc2c1` [Example 27, 3-(6-methylbenzo[b]thiophen-3-yl)pyridine hydrochloride] showed an inhibition at 0.3 µM of 56%. The compound `CC(C)Oc1ccc2c(-c3cccnc3)csc2c1` [Example 12, 3-(6-isopropyloxybenzo[b]thiophen-3-yl)pyridine hydrochloride] registered an inhibition at 0.3 µM of 100%. Take `c1cncc(-c2csc3cc(-c4ccsc4)ccc23)c1` [Example 31, 3-[6-(3-thienyl)benzo[b]thiophen-3-yl]pyridine hydrochloride]: at 0.3 µM the inhibition was 100%. Same read-out and setting: as for `Oc1ccc(-c2ccc3c(-c4cccnc4)csc3c2)cc1` [Example 19, 4-[3-(3-pyridyl)benzo[b]thiophen-6-yl]-phenol], the figure is 68%. In the case of `CC(=O)Oc1ccc2c(-c3cccnc3)csc2c1` [Example 9, 3-(3-pyridyl)benzo[b]thiophen-6-yl=acetate], the “Inhibitory activity (%)” value is 63%. As to `Fc1ccc(-c2ccc3c(-c4cccnc4)csc3c2)cc1` [Example 13, 3-[6-(4-fluorophenyl)benzo[b]thiophen-3-yl]pyridine hydrochloride], the inhibition at 0.3 µM is 93%. Regarding `Brc1cccc2scc(-c3cccnc3)c12` [Example 29, 3-(4-bromobenzo[b]thiophen-3-yl)pyridine hydrochloride], testing at 0.3 µM gave an inhibition of 25%. Turning to `CC(=O)c1ccc(-c2ccc3c(-c4cccnc4)csc3c2)cc1` [Example 44, 1-{4-[3-(3-pyridyl)benzo[b]thiophen-6-yl]phenyl}-1-ethanone], the inhibition at 0.3 µM was determined as 46%.

Regarding `c1cncc(-c2csc3cc(-c4cccs4)ccc23)c1` [Example 33, 3-[6-(2-thienyl)benzo[b]thiophen-3-yl]pyridine hydrochloride], at 0.3 µM the inhibition was 100%.

The compound `c1cncc(-c2csc3cc(OC4CCCC4)ccc23)c1` [Example 25, 3-(6-cyclopentyloxybenzo[b]thiophen-3-yl)pyridine hydrochloride] gave an inhibition at 0.3 µM of 76%. Take `CCCOc1ccc2c(-c3cccnc3)csc2c1` [Example 41, 3-(6-propyloxybenzo[b]thiophen-3-yl)pyridine hydrochloride]: testing at 0.3 µM gave an inhibition of 95%. In the case of `c1ccc(COc2ccc3c(-c4cccnc4)csc3c2)cc1` [Example 11, 3-(6-benzyloxybenzo[b]thiophen-3-yl)pyridine hydrochloride], the inhibition at 0.3 µM was determined as 71%.

For the compound `Nc1cccc(-c2ccc3c(-c4cccnc4)csc3c2)c1` [Example 23, 3-[3-(3-pyridyl)benzo[b]thiophen-6-yl]phenylamine], at 0.3 µM the inhibition was 100%. `O=[N+]([O-])c1cccc(-c2ccc3c(-c4cccnc4)csc3c2)c1` [Example 53, 3-[6-(3-nitrophenyl)benzo[b]thiophen-3-yl]pyridine] displayed an inhibition at 0.3 µM of 86%. With `CC(=O)c1cccc(-c2ccc3c(-c4cccnc4)csc3c2)c1` [Example 39, 1-{3-[3-(3-pyridyl)benzo[b]thiophen-6-yl]phenyl}-1-ethanone], at 0.3 µM the inhibition was 64%.

`c1cncc(-c2csc3cc(-c4ccco4)ccc23)c1` [Example 34, 3-[6-(2-furyl)benzo[b]thiophen-3-yl]pyridine hydrochloride]: at 0.3 µM the inhibition was 100%. Same read-out and setting: as for `CC(C)COc1ccc2c(-c3cccnc3)csc2c1` [Example 40, 3-(6-isobutyloxybenzo[b]thiophen-3-yl) pyridine hydrochloride], the figure is 79%. `COc1ccc(-c2ccc3c(-c4cccnc4)csc3c2)cc1OC` [Example 21, 3-[6-(3,4-dimethoxyphenyl)benzo[b]thiophen-3-yl]pyridine] had an inhibition at 0.3 µM of 30%. In turn, `Fc1cccc(-c2ccc3c(-c4cccnc4)csc3c2)c1` [Example 14, 3-[6-(3-fluorophenyl)benzo[b]thiophen-3-yl]pyridine] registered an inhibition at 0.3 µM of 91%. On the same count and under the same terms, as for `c1cncc(-c2csc3cc(C4CCCCC4)ccc23)c1` [Example 50, 3-(6-cyclohexylbenzo[b]thiophen-3-yl)pyridine hydrochloride], the figure is 80%. In turn, `CC(=O)c1ccccc1-c1ccc2c(-c3cccnc3)csc2c1` [Example 38, 1-{2-[3-(3-pyridyl)benzo[b]thiophen-6-yl]phenyl}-1-ethanone hydrochloride] gave an inhibition at 0.3 µM of 45%. Take `Oc1ccc2c(-c3cccnc3)csc2c1` [Example 8, 3-(3-pyridyl)benzo[b]thiophen-6-ol]: the inhibition at 0.3 µM was found to be 59%.

Compound `COc1ccc2c(-c3cccnc3)csc2c1` [Example 2, 3-[6-methoxybenzo[b]thiophen-3-yl]pyridine hydrochloride] returned an inhibition at 0.3 µM of 89%.

In the case of `CC(C)Nc1cccc(-c2ccc3c(-c4cccnc4)csc3c2)c1` [Example 49, isopropyl {3-[3-(3-pyridyl)benzo[b]thiophen-6-yl]phenyl}amine], the inhibition at 0.3 µM stood at 67%. For the compound `c1ccc(-c2ccc3c(-c4cccnc4)csc3c2)cc1` [Example 15, 3-(6-phenylbenzo[b]thiophen-3-yl)pyridine], 0.3 µM produced 93% inhibition.

`CC(C)Cc1ccc2c(-c3cccnc3)csc2c1` [Example 46, 3-(6-isobutylbenzo[b]thiophen-3-yl)pyridine hydrochloride] registered an inhibition at 0.3 µM of 100%. In the case of `Cl.FC(F)(F)c1ccccc1-c1ccc2c(-c3cccnc3)csc2c1` [Example 48, 3-{[6-(2-trifluoromethyl)phenyl]benzo[b]thiophen-3-yl}pyridine hydrochloride], the “Inhibitory activity (%)” value is reported as 54%. For `CSc1ccc(-c2ccc3c(-c4cccnc4)csc3c2)cc1` [Example 47, 3-[6-(4-methylthiophenyl)benzo[b]thiophen-3-yl]pyridine hydrochloride], the inhibition at 0.3 µM worked out at 53%. As for `c1cncc(-c2csc3cc(OC4CCC4)ccc23)c1` [Example 30, 3-(6-cyclobutyloxybenzo[b]thiophen-3-yl) pyridine hydrochloride], the inhibition at 0.3 µM came to 100%.

The record behind these values is US20030130340A1, “Novel benzothiophene derivatives” (Daiichi Pharmaceutical Co. Ltd., priority 2000, published 2003).
